Laboratory results taken from patent US8841460B2, “Tunable phenylacetylene hosts” (State of Oregon, acting by and through the State Board of …, priority 2011, dated 2014).

Key:
[1] = Photoluminescence quantum yield and Stokes shift in MeCN; type: physicochemical
Method: This example describes general materials and methods used in the synthesis and characterization of exemplary host compounds. All solvents were dried over 3 Å molecular sieves unless otherwise stated. THF, Et3N, and CH2Cl2 were respectively distilled from potassium metal and CaH2 prior to use. All other materials were obtained from TCI-America, Sigma-Aldrich, Acros and Strem and used as received. ^1H and ^13C NMR spectra were recorded using a Varian Inova 300 (^1H 299.95 MHz, ^13C 75.43 MHz) or Inova 500 (^1H 500.10 MHz, ^13C 125.75 MHz) spectrometer. Chemical shifts (δ) expressed as ppm downfield from tetramethylsilane using either the residual solvent peak as an internal standard (CDCl3 ^1H, 7.27 ppm) or using CDCl3 spiked with 1% […] for the ^1H NMR spectra. For the ^13C NMR spectra the middle CDCl3 peak (δ 77.00 ppm) was used as the internal standard. Signal patterns are indicated as b, broad; s, singlet; d, doublet; t, triplet; m, multiplet. Coupling constants (J) are given in hertz. UV-Vis spectra were recorded using a Hewlett-Packard 8453 spectrophotometer and extinction coefficients are expressed in M^−1 cm^−1. Mass spectra were recorded using an Agilent 1100 Series LC/MSD. Emission spectra were recorded on a Hitachi F-4500 fluorescence spectrophotometer. Melting points were determined with a Meltemp II apparatus or a TA Instruments DSC 2920 Modulated DSC. […]

[2] = Absorption/fluorescence response upon addition of TFA; details: reversed by aqueous base
Source text: The absorption spectra of compounds 6-8 and 10 are dominated by a characteristic pattern consisting of three peaks. There is a lack of significant spectral changes associated with conversion of diamide 8 to disulfide 10, which is not unexpected, as overall conjugation remains limited by the methylene spacer.

Row | Quantum Yield (PLQY) [1] | Stokes Shift [1] | Structure (SMILES) | spectral change upon addition of TFA [2]
1 | 0.6% | 5270 cm⁻¹ | CC(C)(C)c1ccc(N)c(C#Cc2cccc(C#Cc3cc(C(C)(C)C)ccc3N)n2)c1 [Dianiline 6, 2,2′-(pyridine-2,6-diylbis(ethyne-2,1-diyl))bis(4-tert-butylaniline)] | –
2 | – | – | CC(C)(C)c1ccc2c(c1)C#Cc1cccc(n1)C#Cc1cc(C(C)(C)C)ccc1NC(=O)CSSCC(=O)N2 [disulfide 10] | conversion from a colorless solution with purple fluorescence to a deep yellow solution with yellow fluorescence
